Tests used:
[1] = test system: B16F10-Cas9 cells pulsed with SIINFEKL peptide, co-cultured with OT-I T cells; assay: Genome-scale CRISPR-Cas9 screen, selection with OT-I T cells; type: cell-based, mouse; settings: Table 3; B16F10-Cas9 cells pulsed with SIINFEKL, co-cultured with OT-I T cells 1:1 for one day; negative = depleted, positive = enriched
[2] = test system: B16F10-Cas9 cells co-cultured with Pmel-1 T cells; assay: Genome-scale CRISPR-Cas9 screen, selection with Pmel-1 T cells; type: cell-based, mouse; settings: Table 3; B16F10-Cas9 cells pre-treated with IFNγ, co-cultured with Pmel-1 T cells 1:1 for three days; negative = depleted, positive = enriched

## ACTCACTCTGGATAGCATAC (chemistry not fully specified)
[1]
  OT1 (sgRNA Log(2) fold change, OT-I selection versus control T cells): 5.27
[2]
  Pmel+ (sgRNA Log(2) fold change, Pmel-1 selection versus control T cells): 3.80

## TGGAACCTCCTGATCCGCTG (chemistry not fully specified)
[1]
  OT1 (sgRNA Log(2) fold change, OT-I selection versus control T cells): -4.60
[2]
  Pmel+ (sgRNA Log(2) fold change, Pmel-1 selection versus control T cells): 0.12

## GAACACTCAGCAAATTACAG (chemistry not fully specified)
[1]
  OT1 (sgRNA Log(2) fold change, OT-I selection versus control T cells): -2.58
[2]
  Pmel+ (sgRNA Log(2) fold change, Pmel-1 selection versus control T cells): -0.81

## CTTCCTGGACATCGACGTGG (chemistry not fully specified)
[1]
  OT1 (sgRNA Log(2) fold change, OT-I selection versus control T cells): -2.12
[2]
  Pmel+ (sgRNA Log(2) fold change, Pmel-1 selection versus control T cells): 0.56

## TTCAGATTCAGACATCAGAT (chemistry not fully specified)
[1]
  OT1 (sgRNA Log(2) fold change, OT-I selection versus control T cells): -2.07
[2]
  Pmel+ (sgRNA Log(2) fold change, Pmel-1 selection versus control T cells): 0.00

## CATGCAATACATGCCAAAGG (chemistry not fully specified)
[1]
  OT1 (sgRNA Log(2) fold change, OT-I selection versus control T cells): -2.39
[2]
  Pmel+ (sgRNA Log(2) fold change, Pmel-1 selection versus control T cells): -0.22

## GGTATTCCCAGCATACGACA (chemistry not fully specified)
[1]
  OT1 (sgRNA Log(2) fold change, OT-I selection versus control T cells): 3.32
[2]
  Pmel+ (sgRNA Log(2) fold change, Pmel-1 selection versus control T cells): 5.25

## GATGTGTCCCTAGTCTACCG (chemistry not fully specified)
[1]
  OT1 (sgRNA Log(2) fold change, OT-I selection versus control T cells): -3.40
[2]
  Pmel+ (sgRNA Log(2) fold change, Pmel-1 selection versus control T cells): -0.24

## TCACTGCGTACGCGTCACTG (chemistry not fully specified)
[1]
  OT1 (sgRNA Log(2) fold change, OT-I selection versus control T cells): -3.44
[2]
  Pmel+ (sgRNA Log(2) fold change, Pmel-1 selection versus control T cells): 0.81

## CAGCCTGCTGAGGATCCAGA (chemistry not fully specified)
[1]
  OT1 (sgRNA Log(2) fold change, OT-I selection versus control T cells): -2.33
[2]
  Pmel+ (sgRNA Log(2) fold change, Pmel-1 selection versus control T cells): -1.07

## GCTCGATGGATAGCATTCAC (chemistry not fully specified)
[1]
  OT1 (sgRNA Log(2) fold change, OT-I selection versus control T cells): -3.98
[2]
  Pmel+ (sgRNA Log(2) fold change, Pmel-1 selection versus control T cells): 0.17

## GATATGCTACAGGACCTTCG (chemistry not fully specified)
[1]
  OT1 (sgRNA Log(2) fold change, OT-I selection versus control T cells): -2.83
[2]
  Pmel+ (sgRNA Log(2) fold change, Pmel-1 selection versus control T cells): 0.44

## GCTCAAGTACTCGCCCGACC (chemistry not fully specified)
[1]
  OT1 (sgRNA Log(2) fold change, OT-I selection versus control T cells): -2.85
[2]
  Pmel+ (sgRNA Log(2) fold change, Pmel-1 selection versus control T cells): -0.69

## GCCTGTACCACGCAGCCAAG (chemistry not fully specified)
[1]
  OT1 (sgRNA Log(2) fold change, OT-I selection versus control T cells): -2.37
[2]
  Pmel+ (sgRNA Log(2) fold change, Pmel-1 selection versus control T cells): 0.00

## TTCGGACAAATACGACGACG (chemistry not fully specified)
[1]
  OT1 (sgRNA Log(2) fold change, OT-I selection versus control T cells): -2.32
[2]
  Pmel+ (sgRNA Log(2) fold change, Pmel-1 selection versus control T cells): 0.00

## ATACACAACTATGATGCCAT (chemistry not fully specified)
[1]
  OT1 (sgRNA Log(2) fold change, OT-I selection versus control T cells): -1.48
[2]
  Pmel+ (sgRNA Log(2) fold change, Pmel-1 selection versus control T cells): 5.64

## TCTTGAAAACTATAGTACTC (chemistry not fully specified)
[1]
  OT1 (sgRNA Log(2) fold change, OT-I selection versus control T cells): -2.40
[2]
  Pmel+ (sgRNA Log(2) fold change, Pmel-1 selection versus control T cells): -2.12

## ACATTGATACGCACACTCAC (chemistry not fully specified)
[1]
  OT1 (sgRNA Log(2) fold change, OT-I selection versus control T cells): -2.37
[2]
  Pmel+ (sgRNA Log(2) fold change, Pmel-1 selection versus control T cells): 1.41

## AAAACGGTCTCAAGCCAATG (chemistry not fully specified)
[1]
  OT1 (sgRNA Log(2) fold change, OT-I selection versus control T cells): -3.05
[2]
  Pmel+ (sgRNA Log(2) fold change, Pmel-1 selection versus control T cells): 1.05

## TGCACAGCATACACTAGTGA (chemistry not fully specified)
[1]
  OT1 (sgRNA Log(2) fold change, OT-I selection versus control T cells): -2.96
[2]
  Pmel+ (sgRNA Log(2) fold change, Pmel-1 selection versus control T cells): -1.65

## GGACACCAAGTTATTCCGTG (chemistry not fully specified)
[1]
  OT1 (sgRNA Log(2) fold change, OT-I selection versus control T cells): -3.20
[2]
  Pmel+ (sgRNA Log(2) fold change, Pmel-1 selection versus control T cells): -2.89

## CAAGAGCCAGACCTTGGATG (chemistry not fully specified)
[1]
  OT1 (sgRNA Log(2) fold change, OT-I selection versus control T cells): -2.86
[2]
  Pmel+ (sgRNA Log(2) fold change, Pmel-1 selection versus control T cells): 0.41

## TCGGCTTCCCATTCTCCGGT (chemistry not fully specified)
[1]
  OT1 (sgRNA Log(2) fold change, OT-I selection versus control T cells): 5.48
[2]
  Pmel+ (sgRNA Log(2) fold change, Pmel-1 selection versus control T cells): 4.33

## AAAAATTCAACGTTGAAACA (chemistry not fully specified)
[1]
  OT1 (sgRNA Log(2) fold change, OT-I selection versus control T cells): -1.37
[2]
  Pmel+ (sgRNA Log(2) fold change, Pmel-1 selection versus control T cells): -3.43

## GCCCTTTACTTTCAGTACGG (chemistry not fully specified)
[1]
  OT1 (sgRNA Log(2) fold change, OT-I selection versus control T cells): -2.52
[2]
  Pmel+ (sgRNA Log(2) fold change, Pmel-1 selection versus control T cells): -0.93

## TAGCCGACAGAGATGTACCG (chemistry not fully specified)
[1]
  OT1 (sgRNA Log(2) fold change, OT-I selection versus control T cells): 0.05
[2]
  Pmel+ (sgRNA Log(2) fold change, Pmel-1 selection versus control T cells): 3.52

## CCGAGACCCCAATAGTGCAA (chemistry not fully specified)
[1]
  OT1 (sgRNA Log(2) fold change, OT-I selection versus control T cells): 0.71
[2]
  Pmel+ (sgRNA Log(2) fold change, Pmel-1 selection versus control T cells): 2.89

## ACGACGAGGAGTTCGAATAC (chemistry not fully specified)
[1]
  OT1 (sgRNA Log(2) fold change, OT-I selection versus control T cells): -2.76
[2]
  Pmel+ (sgRNA Log(2) fold change, Pmel-1 selection versus control T cells): -0.86

## CTGAGCATGTCTAACACGAG (chemistry not fully specified)
[1]
  OT1 (sgRNA Log(2) fold change, OT-I selection versus control T cells): -2.99
[2]
  Pmel+ (sgRNA Log(2) fold change, Pmel-1 selection versus control T cells): -0.37

## CTTGTGACGGTAATTCTGAA (chemistry not fully specified)
[1]
  OT1 (sgRNA Log(2) fold change, OT-I selection versus control T cells): -2.48
[2]
  Pmel+ (sgRNA Log(2) fold change, Pmel-1 selection versus control T cells): 0.00

## CCTGGGCTAGCACATAACCA (chemistry not fully specified)
[1]
  OT1 (sgRNA Log(2) fold change, OT-I selection versus control T cells): -3.35
[2]
  Pmel+ (sgRNA Log(2) fold change, Pmel-1 selection versus control T cells): 0.10

## CTTGGTCAAATACACTACAG (chemistry not fully specified)
[1]
  OT1 (sgRNA Log(2) fold change, OT-I selection versus control T cells): 1.61
[2]
  Pmel+ (sgRNA Log(2) fold change, Pmel-1 selection versus control T cells): 2.66

## CGGCCCGCCGATGTCGTGTG (chemistry not fully specified)
[1]
  OT1 (sgRNA Log(2) fold change, OT-I selection versus control T cells): -3.19
[2]
  Pmel+ (sgRNA Log(2) fold change, Pmel-1 selection versus control T cells): -0.25

## AGCGTATAATCTTCGATCAG (chemistry not fully specified)
[1]
  OT1 (sgRNA Log(2) fold change, OT-I selection versus control T cells): -2.46
[2]
  Pmel+ (sgRNA Log(2) fold change, Pmel-1 selection versus control T cells): 1.35

## GAAAAATCTGTACACCACCG (chemistry not fully specified)
[1]
  OT1 (sgRNA Log(2) fold change, OT-I selection versus control T cells): -2.64
[2]
  Pmel+ (sgRNA Log(2) fold change, Pmel-1 selection versus control T cells): -0.30

## TTACTGAGGCTCGATTGGGA (chemistry not fully specified)
[1]
  OT1 (sgRNA Log(2) fold change, OT-I selection versus control T cells): -3.59
[2]
  Pmel+ (sgRNA Log(2) fold change, Pmel-1 selection versus control T cells): 0.41

## TACTGATCATAAACGAACCA (chemistry not fully specified)
[1]
  OT1 (sgRNA Log(2) fold change, OT-I selection versus control T cells): -3.34
[2]
  Pmel+ (sgRNA Log(2) fold change, Pmel-1 selection versus control T cells): 0.25

## GCTGCAGAGGCAGTTTGATG (chemistry not fully specified)
[1]
  OT1 (sgRNA Log(2) fold change, OT-I selection versus control T cells): -3.06
[2]
  Pmel+ (sgRNA Log(2) fold change, Pmel-1 selection versus control T cells): -0.70

## GCCAGCTTTCTCGCACGTGG (chemistry not fully specified)
[1]
  OT1 (sgRNA Log(2) fold change, OT-I selection versus control T cells): -0.61
[2]
  Pmel+ (sgRNA Log(2) fold change, Pmel-1 selection versus control T cells): -2.01

## TGGACCTCCGAAAAACATCT (chemistry not fully specified)
[1]
  OT1 (sgRNA Log(2) fold change, OT-I selection versus control T cells): 3.78
[2]
  Pmel+ (sgRNA Log(2) fold change, Pmel-1 selection versus control T cells): 5.37

## TCATCTTCGGAGGGCTCAAG (chemistry not fully specified)
[1]
  OT1 (sgRNA Log(2) fold change, OT-I selection versus control T cells): 0.18
[2]
  Pmel+ (sgRNA Log(2) fold change, Pmel-1 selection versus control T cells): 2.75

## ACTCGTACAGCTCCTGTGGT (chemistry not fully specified)
[1]
  OT1 (sgRNA Log(2) fold change, OT-I selection versus control T cells): 0.67
[2]
  Pmel+ (sgRNA Log(2) fold change, Pmel-1 selection versus control T cells): 2.62

## GCAGGGGTCTCCTTATGTCG (chemistry not fully specified)
[1]
  OT1 (sgRNA Log(2) fold change, OT-I selection versus control T cells): -2.67
[2]
  Pmel+ (sgRNA Log(2) fold change, Pmel-1 selection versus control T cells): -1.13

## ACAGCCTCCCAATATCTCAG (chemistry not fully specified)
[1]
  OT1 (sgRNA Log(2) fold change, OT-I selection versus control T cells): -3.56
[2]
  Pmel+ (sgRNA Log(2) fold change, Pmel-1 selection versus control T cells): -0.54

## CTGCAGCATATCGTCAACCA (chemistry not fully specified)
[1]
  OT1 (sgRNA Log(2) fold change, OT-I selection versus control T cells): -2.30
[2]
  Pmel+ (sgRNA Log(2) fold change, Pmel-1 selection versus control T cells): -0.72

From US11820822B2, “Methods for sensitizing cancer cells to T cell-mediated killing by modulating molecular pathways” (DANA-FARBER CANCER INSTITUTE, INC., priority 2017, dated 2023)
